Source: patent publication US10105384B2, “Nucleic acids targeting TCTP for use in the treatment of chemo- or hormone-resistant cancers” (INSTITUT NATIONAL DE LA SANTE ET DE LA RECHERCHE MEDICALE …, priority 2010, dated 2018)
d = 2'-deoxy (DNA); r = 2'-OH (RNA)

How the values were obtained:
LNCaP cells = assay: Crystal violet cell growth assay, LNCaP cells; format: cell-based, human
Procedure: (§1) In brief, cells were seeded in each well of 12-well microtiter plates (30 000 to 50 000 cells per well) and allowed to attach overnight. To study the effect of TCTP downregulation on apoptosis induced by docetaxel, PC-3 cells were transiently transfected the day after seeding with 5 nM of TCTP siRNA for 48 h or 100 nM of TCTP ASO for 72 h. Cells were then treated with 50 nM of docetaxel and MTT assays were performed after 24 h. To assess the effect of TCTP downregulation on Hsp27 cytoprotection, LNCaP-Mock and -Hsp27 cells were transiently transfected the day after seeding with 5 nM of TCTP siRNA for 48 h. The down- or upregulation of TCTP effect on LNCaP and C4-2 cell viability was realized after transient transfections with 100 nM of TCTP ASO or 0.02 μg/μl of pDEST-TCTP for 72 h and 48 h respectively. Cells were then treated with 1 nM of docetaxel in serum-free media (mimics androgen withdrawal in vitro) and crystal violet assays were performed the day after. Each assay was performed in triplicate.
(§2) Finally, in order to assess if TCTP ASO has the same effect on prostatic cancer cell lines expressing the androgen receptor (AR), crystal violet dye was used to examin LNCaP and C4-2 cell growth. LNCaP and C4-2 were treated with 100 nM TCTP or control ASO (FIGS. 15 A and B) for 2 days. Then, LNCaP and C4-2 cells were incubated with 1 nM of docetaxel in serum-free media.

C4-2 cells = assay: Crystal violet cell growth assay, C4-2 cells; format: cell-based, human
Procedure: as §1, §2

PC-3 tumors = assay: PC-3 tumor growth in vivo in athymic nude mice
Procedure: (§3) Approximately 3.10^6 PC-3 cells and 10.10^6 LNCaP cells were inoculated subcutaneously with 0.1 mL of Dulbecco's Modified Eagle's Medium (Invitrogen) supplemented with 10% FCS for PC-3 or with 0.1 mL of Matrigel (BD Biosciences Discovery Labware) for LNCaP in the flank region of 4-week-old male athymic nude mice (Charles River, L'Arbresle, France) via a 23-gauge needle. When PC-3 tumors reached 50 mm^3, usually 3 to 4 weeks after injection, mice were randomly selected for treatment with TCTP ASO alone, scrambled ASO alone, TCTP ASO plus docetaxel or scrambled ASO plus docetaxel. Mice bearing LNCaP tumors between 200 and 300 mm^3 in volume were castrated via scrotal approach and randomly assigned to a treatment arm. Mice were treated beginning 1 week after castration with TCTP ASO or control ASO alone and serum PSA measurements were done weekly. For both experiments, each experimental group consisted in 10 mice and the tumor volume measurements were performed once weekly and calculated by the formula length×width×depth×0.5236 (Gleave et al., 1999, Clin Cancer Res 5:2891-8). After randomization, 10 mg/kg TCTP or scrambled ASO was injected intraperitoneally (i.p) once daily for 60 days for ASO monotherapy groups and 90 days for the ASO plus docetaxel groups. A total of 35 mg/kg docetaxel was administrated i.p. three times per week from days 7 to 14. Tumor volume measurements were performed once weekly and calculated by the formula length×width×depth×0.5236 (20). Data points were expressed as average tumor volume levels +/−standard error (SE). All animal procedures were performed in accordance with protocols approved by French laws and the European directives and with appropriate institutional certification.
We next evaluated the effects of TCTP ASO treatment on the growth of PC-3 tumors in vivo (FIG. 8). Male nude mice bearing PC-3 tumors (50 mm^3) were randomly selected for TCTP ASO versus scrambled ASO and 10 mg/kg ASO were administrated once daily by i.p. injection for […]. From days 7 to 14, 30 mg/kg of docetaxel was administrated i.p. 3 days in the week. Mean tumor volume was similar in all groups before therapy.
TCTP inhibition was evaluated in nude mice xenografted with the PC3 CRPC cell line. The animals were treated in an everyday basis and for a period of two months by peritoneal injection of ASO or control TCTP once their tumor volume was 200-300 mm^3. In order to evaluate the additive anticancer activity of ASO TCTP, mice were treated with docetaxel (33 mg/kg) by peritoneal injection three times per week for one week prior to ASO or control TCTP injections. For all experiments, the average tumor volume was measured once a week.

LNCaP tumors = assay: LNCaP tumor growth in vivo after castration in athymic nude mice
Procedure: as §3
Twenty male mice bearing LNCaP tumors were castrated 6 to 8 weeks after tumor implantation and were randomly selected for treatment with TCTP ASO of SEQ ID NO: 2 versus control ASO. Castration was done when tumors reached a mean of 200 mm3. Mean tumor volume and PSA were similar in both groups at the beginning of the treatment. Beginning 1 week after castration, 10 mg/kg of ASO was administered once daily by i.p. injection for 9 weeks. […] At sacrifice, tumor volume was 4-fold higher in control (1650, 15±281, 76 mm^3) compared with the TCTP ASO-treated group (397, 79±132, 61 mm^3; *, P≤0.05).

LNCaP-Mock cells = assay: Crystal violet cell growth assay, LNCaP-Mock cells; format: cell-based, human
Procedure: as §1
In order to study consequences of TCTP inhibition on cell survival after combined androgen withdrawal and docetaxel-chemotherapy treatment, cell viability of LNCaP-Mock and -Hsp27 was determined using crystal violet dye after 24 h treatment with 1 nM of docetaxel in serum-free media (mimics androgen withdrawal in vitro). […]

| Substance | LNCaP cell growth (LNCaP cells; 100 nM ASO for 2 days) | sensitivity to docetaxel and androgen withdrawal (LNCaP cells; LNCaP, 100 nM ASO 2 days then 1 nM docetaxel in serum-free media) | C4-2 cell growth (C4-2 cells; 100 nM ASO for 2 days) | sensitivity to docetaxel and androgen withdrawal (C4-2 cells; C4-2, 100 nM ASO 2 days then 1 nM docetaxel in serum-free media) | tumor volume (PC-3 tumors; PC3 xenografted nude mice, 10th week of treatment) | tumor volume maintained (PC-3 tumors; PC3 xenografted nude mice, docetaxel (33 mg/kg) followed by ASO TCTP) | reduction of mean PC-3 tumor volume (PC-3 tumors; TCTP ASO plus docetaxel vs scrambled control, 13 weeks after initiation of treatment) | harvested tumors smaller in appearance (PC-3 tumors; after two weeks of i.p. treatment) | general toxicity (animal behavior, body weight) (PC-3 tumors; mice bearing PC-3 tumors, body weight t0 vs tf) | reduction of PC-3 tumor volume (PC-3 tumors; monotherapy 10 mg/kg i.p. once daily, days 56 to 70, vs scrambled control) | cleaved caspase-3 fragments in harvested PC-3 tumors (PC-3 tumors; western blotting, i.p. delivery) | LNCaP tumor volume increase compared with control ASO (LNCaP tumors; 9 weeks after castration) | harvested tumors smaller in appearance (LNCaP tumors; after 9 weeks of TCTP ASO monotherapy) | tumor volume in control compared with the TCTP ASO-treated group (LNCaP tumors; at sacrifice) | side effects (animal behavior, body weight) (LNCaP tumors; castrated mice bearing LNCaP tumors, 9 weeks) | reduction in LNCaP-Mock cell growth rate (LNCaP-Mock cells; siRNA 5 nM alone, compared with control) | reduction in LNCaP-Mock cell growth rate (LNCaP-Mock cells; siRNA plus 1 nM docetaxel in serum-free medium, 24 h) |
| --- | --- | --- | --- | --- | --- | --- | --- | --- | --- | --- | --- | --- | --- | --- | --- | --- | --- |
| 5′-ACCAATGAGCGAGTCATCAA-3′ (phosphorothioate backbone, further chemistry not given here) [ASO10] | considerably decrease | enhance treatments (docetaxel and androgen withdrawal) sensitivity | considerably decrease | enhance treatments (docetaxel and androgen withdrawal) sensitivity | 500 mm^3 | 100 mm^3 | < 70% | 50% | did not cause general toxicity | 50% | presence of cleaved caspase-3 fragments | increased more slowly | ¾ | 4 fold | No side effects | – | – |
| 5′-AACCCGUCCGCGAUCUCCCdGdG-3′ (AACCCGUCCGCGAUCUCCCGG; siRNA; sugars from the 5' end r19 d2, backbone not given here) [TCTP siRNA, from Qiagen] | – | – | – | – | – | – | – | – | – | – | – | – | – | – | – | 40% | 50% |
